Source: PubChem BioAssay (NCI)
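Cells were grown in 96-well plates and exposed to each compound for 48 hours at five concentrations; endpoints were interpolated linearly between bracketing concentrations, or set to the highest concentration if not reached. GI50: concentration for 50% inhibition of growth. TGI: total growth inhibition.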

Legend:
Test in all cases: growth of human tumour cells (NCI), 48 h
[1] = test system: A549 NSCLC
[2] = test system: ACHN renal
[3] = test system: BT-549 breast
[4] = test system: HCT-15 colon
[5] = test system: MCF7 breast
[6] = test system: SR leukemia
[7] = test system: SW-620 colon
[8] = test system: DMS 114 small cell lung
[9] = test system: DMS 273 small cell lung
[10] = test system: M19-MEL melanoma
[11] = test system: SN12K1 renal
[12] = test system: XF 498 CNS
[13] = test system: MDA-N

SMILES	GI50 [1] [µM]	TGI [1] [µM]	GI50 [2] [µM]	TGI [2] [µM]	GI50 [3] [µM]	TGI [3] [µM]	GI50 [4] [µM]	TGI [4] [µM]	GI50 [5] [µM]	TGI [5] [µM]	GI50 [6] [µM]	TGI [6] [µM]	GI50 [7] [µM]	TGI [7] [µM]	TGI [8] [µM]	TGI [9] [µM]	TGI [10] [µM]	TGI [11] [µM]	TGI [12] [µM]	TGI [13] [µM]
COc1ccc2c3c(Nc4cccc(/C(C)=N\O)c4)[nH]c4ccccc4c-3c(N=O)c2c1	27.6	> 100	33.3	91.7	47	> 100	18	39.6	73.9	> 100	20.4	> 100	32.1	> 100	–	–	–	–	–	–
COc1cc(C2c3cc4c(cc3[C@@H](Nc3cccc(CO)c3)C3COC(=O)[C@H]23)OCO4)cc(OC)c1O (stereo partly drawn)	–	1.96	–	–	–	–	–	2.86	–	26.3	–	–	–	> 41.3	3.82	1.76	32.6	5.53	5.63	–
CC(CC(N)C(=O)O)C(=O)O (stereo not drawn)	–	> 100	–	> 100	–	> 100	–	> 100	–	–	–	> 100	–	> 100	–	–	–	–	–	> 100
COc1cc(OC)cc(-c2ccc(-c3ccc(C(=N)N)cn3)o2)c1	1.86	3.52	1.71	3.16	–	–	–	–	–	–	1.73	3.96	1.67	3.25	–	–	–	–	–	–
OCC1COc2cc(Cl)c(Cl)cc2O1 (stereo not drawn)	–	> 10	–	> 10	–	–	–	> 10	–	> 10	–	> 10	–	> 10	–	–	–	–	–	> 10
CSCC[C@@H]1C(=O)N(C)[C@H](C(C)(C)C)N1C(=O)c1ccccc1	–	> 100	–	–	–	–	–	> 100	–	> 100	–	–	–	> 100	> 100	> 100	> 100	> 100	> 100	–
COc1nc2cccc(C(O)c3ccccc3)c2nc1-c1ccccc1 (stereo not drawn)	–	54.5	–	72.9	–	46.3	–	26.5	–	32	–	12.4	–	16.6	–	–	–	–	–	5.17
CC1(C)[C@@H]2CC[C@]1(C)[C@H](OC(=O)/C=C/c1ccccc1)C2	–	> 100	–	31.9	–	48	–	33.4	–	30.8	–	–	–	30.6	–	–	–	–	–	92.6
COc1cc(C(=O)O[C@H](C(=O)NCCCNC(=O)[C@@H](OC(=O)c2cc(OC)cc3c(C)cccc23)[C@]2(C)CO2)[C@]2(C)CO2)c2cccc(C)c2c1	0.128	0.718	–	–	0.197	2.29	0.0444	0.723	< 0.01	0.219	–	–	< 0.01	–	–	–	–	–	–	–
